Test results published in PubChem BioAssay AID624405 (Broad Institute, 2012).
Records with an inconclusive call do not appear.

tested on: C2C12 myotubes + simvastatin, ATP luminescence, 48 h; test: rescue of simvastatin-induced ATP loss – cell-based, C2C12 myotubes, ATP luminescence, cherry pick, dose response (AID 624405);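 note: myotubes are challenged with simvastatin at 10 µM to lower ATP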

Point of comparison: `C[C@@H]1CN([C@@H](C)CO)C(=O)Cc2cc(N(C)C)ccc2O[C@@H]1CN(C)Cc1ccc(Cl)c(Cl)c1`, AC40 9.93 µM. Against it:
- N#Cc1nc(-c2ccco2)oc1N1CCCC1 — 50-fold lower, 0.199 µM
- Nc1nonc1-c1nc2ccccc2n1Cc1ccc(F)cc1Cl — 11-fold lower, 0.892 µM
- Cc1cccc(S(=O)(=O)N2CCCCN3[C@H](CO)[C@@H](c4ccc(C#C[C@H](C)O)cc4)[C@@H]3C2)c1 — 1.7-fold higher, 17.3 µM
- Fc1ccc(-c2csc(Nc3ccccn3)n2)cc1 — within 1.5-fold, 7.31 µM
- O=c1[nH]cnc2scc(-c3ccsc3)c12 — within 1.5-fold, 13.2 µM
- C[C@H](CO)N1C[C@H](C)[C@@H](CN(C)Cc2ccc(Cl)c(Cl)c2)Oc2ccc(NS(=O)(=O)c3cn(C)cn3)cc2CC1=O — 1.9-fold lower, 5.29 µM
- COc1ccc(C#Cc2cnc3c(c2)C(=O)N([C@H](C)CO)C[C@H](C)[C@H](CN(C)Cc2ccccc2)O3)cc1OC — 3.7-fold lower, 2.66 µM
- CC(=O)Nc1nc2n(n1)C(c1ccc(F)cc1)C=C(c1ccccc1)N2 (stereo not given) — 5.6-fold lower, 1.77 µM
- C[C@@H]1CN([C@@H](C)CO)C(=O)c2cc(NC(=O)Nc3cccc4ccccc34)ccc2O[C@H]1CN(C)Cc1ccc(C(=O)Nc2ccccc2N)cc1 — 1.5-fold higher, 15.2 µM
- Cc1ccc(S(=O)(=O)N2CCN(S(=O)(=O)c3ccc(C)cc3)C2c2ccccc2)cc1 — 1.9-fold higher, 18.6 µM
- O=C(c1cccc(Cl)c1)c1nn(-c2ccccc2)c(=O)cc1C(F)(F)F — 2-fold lower, 4.99 µM
- Cc1ccc(S(=O)(=O)Nc2ccc3c(c2)CC(=O)N([C@@H](C)CO)C[C@H](C)[C@@H](CN(C)Cc2ccc(-c4ccccc4)cc2)O3)cc1 — 1.9-fold higher, 18.9 µM
- Cc1noc(C)c1NC(=O)Nc1cccc2c1O[C@H](CN(C)Cc1ccc(-c3ccccc3)cc1)[C@@H](C)CN([C@H](C)CO)C2=O — within 1.5-fold, 12.6 µM
- COc1ccc(S(=O)(=O)Nc2ccc3c(c2)OCCO3)cc1Cl — 6.8-fold lower, 1.46 µM
- C[C@@H]1CN([C@H](C)CO)C(=O)Cc2cc(NC(=O)CCCCCC(=O)Nc3ccccc3N)ccc2O[C@@H]1CN(C)Cc1ccccc1 — within 1.5-fold, 14.4 µM
- C[C@H](CO)N1C[C@H](C)[C@H](CN(C)Cc2ccc(Cl)c(Cl)c2)Oc2ccc(NC(=O)CCCCCC(=O)Nc3ccccc3N)cc2CC1=O — within 1.5-fold, 13.4 µM
- O=S(=O)(NCc1ccco1)c1ccc(S(=O)(=O)N2CCCCC2)cc1 — 2-fold lower, 5.03 µM
- Cc1cc(C)c(C)c(S(=O)(=O)NCC(=O)N2CCCC2)c1C — within 1.5-fold, 13.2 µM
- NS(=O)(=O)OCC(Cc1ccccc1)N1C(=O)c2ccccc2C1=O (stereo not given) — within 1.5-fold, 14.6 µM
- COc1ccc(S(=O)(=O)Nc2ccc3c(c2)C(=O)N([C@@H](C)CO)C[C@H](C)[C@H](CN(C)S(=O)(=O)c2ccc(F)cc2)OCCCC[C@@H](C)O3)cc1 — 1.8-fold higher, 17.7 µM
- O=C(NCc1ccco1)c1cc2sccc2n1Cc1ccccc1 — 12-fold lower, 0.839 µM
- C[C@@H]1CN([C@H](C)CO)C(=O)Cc2cc(NC(=O)CCCCCC(=O)Nc3ccccc3N)ccc2O[C@@H]1CN(C)Cc1ccc(Cl)c(Cl)c1 — within 1.5-fold, 9.57 µM
- Cc1nnsc1NC(=O)OCc1ccc(C(F)(F)F)cc1 — within 1.5-fold, 8.84 µM
- COc1ccc(S(=O)(=O)Nc2ccc3c(c2)CC(=O)N([C@H](C)CO)C[C@H](C)[C@@H](CN(C)Cc2ccc(Cl)c(Cl)c2)O3)cc1 — 1.6-fold higher, 15.9 µM
- O=C(NCC(c1cccnc1)N1CCN(c2ccc(F)cc2)CC1)c1ccc2c(c1)OCO2 (stereo not given) — 1.7-fold lower, 5.7 µM
- C=CCn1c(=O)[nH]c(=O)c2c(N)c(C(=O)c3ccc(OC)cc3)sc21 — within 1.5-fold, 14.5 µM
- C=CCn1c(SCC(=O)NC2CCCC2)nc2scc(-c3ccco3)c2c1=O — within 1.5-fold, 9.19 µM
- C[C@H](CO)N1C[C@H](C)[C@H](CN(C)Cc2ccc(C(=O)Nc3ccccc3N)cc2)Oc2ccc(NC(=O)Cc3cn(C)c4ccccc34)cc2C1=O — 1.6-fold lower, 6.08 µM
- CC1(Cc2ccccc2OC(F)(F)F)C(=O)Nc2ccc(S(=O)(=O)NC3CCCCC3)cc21 (stereo not given) — 1.5-fold lower, 6.62 µM
- Cc1ccc(C2CC2c2n[nH]c(=S)n2-c2ccc(C)cc2)cc1 (stereo not given) — 1.6-fold lower, 6.33 µM
- CCOc1ccccc1NC(=O)C1CCCN(S(=O)(=O)c2ccc(OC)c(C)c2)C1 (stereo not given) — within 1.5-fold, 8.06 µM
- Cc1ccc(S(=O)(=O)Nc2ccc3c(c2)C(=O)N([C@H](C)CO)C[C@H](C)[C@H](CN(C)Cc2ccc(C(=O)Nc4ccccc4N)cc2)O3)cc1 — 1.7-fold higher, 17 µM
- Cc1ccc(O)c(NC(=O)c2cc(-c3cccs3)on2)c1 — within 1.5-fold, 14.3 µM
- Cc1nn(Cc2ccccc2Cl)c2sc(C(=O)NCc3ccc4c(c3)OCO4)cc12 — within 1.5-fold, 12.5 µM
- CC(C)(C)c1ccc(Cn2nnc3c(=O)[nH]c(C4CCN(C(=O)Cc5cccs5)CC4)nc32)cc1 — 2.5-fold lower, 3.99 µM
- C[C@H](CO)N1C[C@H](C)[C@@H](CN(C)Cc2ccc(Cl)c(Cl)c2)Oc2ccc(NC(=O)Cc3cn(C)c4ccccc34)cc2CC1=O — within 1.5-fold, 7.35 µM
- COc1cc(OC)cc(-c2nnc(SCC(=O)N3CCCc4ccccc43)o2)c1 — 1.7-fold higher, 16.8 µM
- C[C@H]1CN([C@@H](C)CO)C(=O)c2cccc(NC(=O)Nc3ccc(C(F)(F)F)cc3)c2O[C@H]1CN(C)CC1CCCCC1 — 1.9-fold higher, 19.1 µM
- C[C@H](CO)N1C[C@H](C)[C@@H](CN(C)Cc2ccc(Cl)c(Cl)c2)Oc2ccc(NC(=O)C3CCCCC3)cc2CC1=O — 1.8-fold higher, 17.4 µM
- CCSC1(SCC)N=C(N)C2(C#N)C(c3ccc(F)cc3)C12C#N (stereo not given) — 1.6-fold lower, 6.36 µM
- C[C@H]1CN([C@@H](C)CO)C(=O)Cc2cc(NC(=O)CCCCCC(=O)Nc3ccccc3N)ccc2O[C@H]1CN(C)Cc1ccc(Cl)c(Cl)c1 — within 1.5-fold, 12.6 µM
- Cc1ccc(-c2nnc(CSc3nnc(COc4cccc5ccccc45)n3-c3ccccc3)o2)cc1 — 1.8-fold higher, 18.2 µM
- C[C@@H]1CN([C@@H](C)CO)C(=O)Cc2cc(NC(=O)CCCCCC(=O)Nc3ccccc3N)ccc2O[C@H]1CN(C)Cc1ccccc1 — within 1.5-fold, 12.2 µM
- C[C@H]1CN([C@@H](C)CO)S(=O)(=O)c2ccc(C#CC3CC3)cc2O[C@H]1CN(C)C(=O)Nc1cc(F)ccc1F — 2.7-fold lower, 3.66 µM
